In brackets after ≈: the same amount, converted by molar mass.
Experiments:
[1] = system: S. aureus TISTR 517; assay: Agar well diffusion assay; assay type: cell-based, Staphylococcus aureus; details: Staphylococcus aureus, TISTR517, 24 h, read-out: Zone of Inhibition, S. aureus TISTR 517
Description: (§1) To identify potential active bacterial isolates, the cross-streak and agar well diffusion method was employed against S. aureus TISTR 517 and E. coli TISTR 887, following the protocol described in a previous study. The production kinetics of antibacterial substances by the active bacterial isolates were investigated. Single colonies were suspended in 0.9% NaCl solution, and the turbidity was adjusted to an optical density (OD) of 0.35 at 625 nm. Two milliliters of the cell suspension were inoculated into 98 mL of LB broth and incubated at 37 °C with shaking at 150 rpm for seven days. At each time interval, bacterial growth was evaluated by measuring the OD at 625 nm using a UV-Vis spectrophotometer (JASCO Corporation, Tokyo, Japan). The cell-free supernatant (CFS) was obtained by centrifuging the culture at 10,000× g at 4 °C for 15 min. Subsequently, 100 µL of the supernatant was loaded into wells on MH agar plates precultured with tested pathogens. Colistin and vancomycin served as positive controls in agar well diffusion assay.

[2] = system: MRSA Strain 2468; assay: Agar well diffusion assay; assay type: cell-based, Staphylococcus aureus; details: Staphylococcus aureus, MRSA, 24 h, read-out: Zone of Inhibition, MRSA Strain 2468
Description: as §1

[3] = system: P. aeruginosa TISTR 357; assay: Agar well diffusion assay; assay type: cell-based, Pseudomonas aeruginosa; details: Pseudomonas aeruginosa, TISTR357, 24 h, read-out: Zone of Inhibition, P. aeruginosa TISTR 357
Description: as §1

[4] = system: S. aureus TISTR 517; assay: microbe, parasite or virus in culture; assay type: cell-based, Staphylococcus aureus; details: Staphylococcus aureus, TISTR517, 24 h, read-out: MBC, S. aureus TISTR 517
Experimental: (§2) A bacterial suspension was prepared by adjusting its turbidity at OD 625 nm to 0.1 and subsequently made a 20-fold dilution using Cation-Adjusted Mueller–Hinton broth (CAHMB) as a diluent. […] The diluted cell suspension (10 µL) was added to each well, and the plates were incubated at 37 °C for 24 h. The CAMHB alone was used as a negative control, while CAMHB containing colistin or vancomycin served as a positive control.

[5] = system: MRSA Strain 2468; assay: microbe, parasite or virus in culture; assay type: cell-based, Staphylococcus aureus; details: Staphylococcus aureus, MRSA, 24 h
Experimental: as §2

[6] = system: E. coli TISTR 887; assay: Agar well diffusion assay; assay type: cell-based, Escherichia coli; details: Escherichia coli, TISTR887, 24 h, read-out: Zone of Inhibition, E. coli TISTR 887
Description: as §1

[7] = system: K. pneumoniae TISTR 1383; assay: Agar well diffusion assay; assay type: cell-based, Klebsiella pneumoniae; details: Klebsiella pneumoniae, TISTR1383, 24 h, read-out: Zone of Inhibition, K. pneumoniae TISTR 1383
Description: as §1

`CN[C@H](CC(C)C)C(=O)N[C@H]1C(=O)N[C@@H](CC(N)=O)C(=O)N[C@H]2C(=O)N[C@H]3C(=O)N[C@H](C(=O)N[C@H](C(=O)O)c4cc(O)cc(O)c4-c4cc3ccc4O)[C@H](O)c3ccc(c(Cl)c3)Oc3cc2cc(c3O[C@@H]2O[C@H](CO)[C@@H](O)[C@H](O)[C@H]2O[C@H]2C[C@](C)(N)[C@H](O)[C@H](C)O2)Oc2ccc(cc2Cl)[C@H]1O` [Vancomycin] was tested, and the zone of inhibition at 30 µg/disc [1] was 28.5 ± 0.22 mm, the zone of inhibition at 30 µg/disc [2] was 29 ± 0.43 mm and the zone of inhibition at 30 µg/disc [3] was 0 mm. The MBC [4] was 2 µg/mL (≈ 1.38 µM), the MBC ([5]; read-out: MBC, MRSA strain 2468) was 4 µg/mL (≈ 2.76 µM) and the MIC ([5]; read-out: MIC, MRSA strain 2468) was 4 µg/mL (≈ 2.76 µM). For the same compound, the zone of inhibition at 30 µg/disc [6] was 0 mm and the zone of inhibition at 30 µg/disc [7] was 0 mm.

Reference: publication PMC12383022, “Discovery of a Novel Antimicrobial Peptide from Paenibacillus sp. Na14 with Potent Activity Against Gram-Negative Bacteria and Genomic Insights into Its Biosynthetic Pathway” (Antibiotics, 2025)
